Experimental data published in patent publication US20230080811A1 (priority 2020, published 2023).
Counter-ions that a name gives are not always drawn.

Assay: In vivo pharmacokinetic investigation, subcutaneous injection, plasma by LC-MS
Parameters: species or system rat
Conditions: in rats, inferred from PK and duration of efficacy
Procedure: The obtained pharmaceutical composition was subcutaneously injected into male SD rats. Blood was collected at predetermined time points. The content of the drug in plasma was determined by LC-MS method, and the pharmacokinetics in vivo was investigated.
Experimental animals: male SD rats with a weight of 200-300 g, source: […] OF MATERIA MEDICA, CHINESE ACADEMY OF SCIENCES;
Experimental grouping: Rats were randomly divided into groups according to the following table, with 6 rats in each group;
Experimental procedure: Rats were subcutaneously injected, and at a predetermined time point, 0.5 ml of blood was collected from the orbit of the rat and placed in a centrifuge tube with heparin sodium anticoagulation. The tube was centrifuged at 3000 rpm for 10 min to separate the plasma, and the plasma concentration was detected by LC-MS method.
The pharmacokinetic (PK) parameters of the compositions were calculated, and the results were statistically analyzed by t-test.

onset concentration: about 20 ng/ml
SMILES: CCCN1CCCC[C@H]1C(=O)Nc1c(C)cccc1C [ropivacaine hydrochloride]
